In patent publication US9597297B2, “Combination of pilocarpin and methimazol for treating Charcot-Marietooth disease and related disorders” (PHARNEXT, priority 2008, dated 2017):
Entries after “also recorded” stand apart in the source; their conditions may differ.

Assays:
[1] = Body weight of CMT rats during treatment; type: in vivo, rat; settings: treated group comparatively with placebo group, data not shown
Experimental: The animals are weighted twice a week in order to adjust the doses to growing body weight. If the osmotic pump is chosen for the treatment administration, the doses of the drug are calculated on the basis of the estimated mean body weight of the animals expected for their age over the period of the pump duration (6 weeks). The pumps are re-implanted if necessary, with the appropriated anaesthesia protocol.
Body weights, overt signs (coat appearance, body posture, tremor) of the animals are monitored throughout the experiment. The rating scale is used for recording: 0=normal, 1=abnormal.

PMP22 mRNA = PMP22 mRNA level by RT-Q-PCR in RT4-D6P2T schwannoma cells; type: cell-based, rat; settings: 8 hrs, Methimazole 0.1 nm, Pilocarpine 0.001 nm, alone or combined
Experimental: Rat schwannoma RT4-D6-P2T cell line (ATCC #CRL2468™) is defrosted in DMEM (ATCC #30-2002) and 10% FCS (invitrogen #10106). The cells are maintained at 37° C. in a humidified incubator, in an atmosphere of air (95%.)—CO2 (5%). At passage n°4, cells are dissociated by trypsinization (+1 ml of Trypsin-EDTA, 0.25%-0.53 mM; Invitrogen) 5 to 15 min at 37° C. The reaction is stopped by addition of DMEM containing 10% of foetal bovine serum (FBS). […] are counted in a Neubauer cytometer using the trypan blue exclusion test (Sigma). The suspension is triturated with a 10 ml pipette and the cells are then centrifuged at 350×g for 10 min at room temperature. […]
Quantitative RT-PCR is used to compare the levels of PMP22 mRNA after drug stimulation, relative with housekeeping RPS9 mRNA in RT4-D6P2T cell line.
8 hrs after drug incubation, cells are rinsed with cold sterilized PBS, total RNAs from each cell sample are extracted and purified from SC using the Qiagen RNeasy micro kit (Qiagen #74004). Nucleic acids are quantified by Nanodrop spectrophotometer using 1 μl of RNA sample. The RNA integrity is determined through a BioAnalyzer (Agilent) apparatus. […]
In another experiment drugs (listed in Table 1) are incubated with rat schwannoma cell line during 8 hrs and PMP22 mRNA expression level was quantified by RT-Q-PCR.

[2] = test system: CMT transgenic rat model (PMP22 transgenic rats); test: Bar test in CMT transgenic rats; type: in vivo; settings: for time of treatment at which bar test effect becomes statistically significant: force-feeding; for bar test performances: female CMT TG rats vs TG placebo, methimazole 0.35 mg/kg, pilocarpine 0.2 mg/kg as printed in b214
Excerpt: The inventors have tested compounds and combinations for therapeutic effect in CMT transgenic rat model, a hemizygous PMP22 transgenic rats bearing three additional copies of mouse PMP22 gene show signs of demyelination in peripheral and cranial nerves, (Sereda et al., 1996; Grandis et al., 2004). At the mRNA level, an average 1.6-fold overexpression of PMP22 in CMT rats correlates with the clinical phenotype. A putative threshold level of PMP22 overexpression at which the wild type gene turns into a disease gene represents an obvious “target” to reach by treatment aimed at reducing PMP22 gene expression.
The inventors have tested the compounds and combinations for therapeutic effect in a rat model. The experimental groups are formed with young rats of both genders separately. The rats are assigned to the groups following randomization schedule based on the body weight. In some experiments the randomization is based on the performances of the rats in the bar test. Both genders are represented by separate control littermates groups that are numerically equal or bigger than the treatment groups.
The rats are treated chronically with drugs—force fed or injected by Alzet osmotic subcutaneous pump (DURECT Corporation Cupertino, Calif.), depending on each drug bioavailability during 3 or 6 weeks.
Each three or four weeks the animals are subjected to a behavioural test. Each test is conducted by the same investigator in the same room and at the same time of the day; this homogeneity is maintained throughout entire experiment. All treatments and genotype determination are blinded for the investigator. “Bar test” and “Grip strength” has been mainly used to access the performance throughout study. The schedule of the bar test may change as the animal growth (in order to avoid the bias due to the learning, for example).
The bar test evaluates rats' ability to hold on a fix rod. […] The rat is placed on its four paws on the middle of the rod (diameter: 2.5 cm; length: 50 cm; 30 cm above the table). Trials are performed consecutively; the number (5 or 10) and the duration (30 or 60 sec) of trials in our experiments have been depending on batches of the animals. This variability in the testing has been introduced in order to determine the schedule appropriated to the best detection of the motor deficiency in the CMT rats in the course of the experiments.
Performance indices are recorded on each session: • The number of trials needed to hold for 60 sec or 30 sec on the rod. • The mean time spent on the bar (i.e. the fall latency) in each trial and the average on the session. In the experimental procedures the session ends after the rat has stayed two times for a cut-off time, i.e. 30 or 60 s, on the bar. A performance of the cut-off time (30 s or 60 s) is assigned to trials not completed. • The number of falls.

SMILES: Cn1cc[nH]c1=S [methimazole, 1-methyl-3H-imidazole-2-thione]
- entire body weight [1]: rather diminished
- PMP22 mRNA level of expression (PMP22 mRNA): no significant activity
- time of treatment at which bar test effect becomes statistically significant ([2]; CMT TG rats): 8 weeks
- bar test performances ([2]; daily forced feeding): significantly more performing
- bar test performances ([2]; daily forced feeding, listed as Methimazole): improve bar test performances

SMILES: CC[C@@H]1C(=O)OC[C@@H]1Cc1cncn1C [pilocarpine, (3S,4R)-3-ethyl-4-[(3-methylimidazol-4-yl)methyl]oxolan-2-one]
- PMP22 mRNA level of expression (PMP22 mRNA): no significant activity
- bar test performance compared with WT placebo group ([2]; CMT TG rats, daily forced feeding): no more significantly differs from that of the WT placebo group
- time of treatment at which bar test effect becomes statistically significant ([2]; CMT TG rats): 8 weeks
- bar test performances ([2]; daily forced feeding): improve bar test performances; also recorded: significantly more performing
